{
  "source": "patent US20070009568A1",
  "about": "“METHODS FOR IMMOBILIZING MOLECULES ON SURFACES” (priority 2005, published 2007)",
  "tested_on": "fibroblasts",
  "assay": "Fibroblast attachment to tresylated titanium wire grafted with P-15",
  "format": "cell-based",
  "settings": "then P-15 1 mg/ml in 100 mM phosphate buffer pH 7.4 overnight, compared with control wire not exposed to P-15",
  "procedure": "In this Example, titanium wire was treated with tresylation and attachment of P-15, followed by exposure to fibroblasts. The titanium wire was washed thoroughly in ethanol, then soaking in a 0.1 N NaOH solution for 15 minutes, followed by washing 10× with DI H2O. The surface was then rinsed in full strength H2O2, then soaked in 50% H2O2 overnight. The wire was then placed in a tresylation reaction mixture of trifluoroethanesulfonyl chloride (200 ul), pyridine (1.0 ml), and tetrahydrofuran (20 ml) overnight, followed by washing in DI H2O. The surface was then placed in a solution containing P-15 1 mg/ml in 100 mM phosphate buffer, pH 7.4, overnight. Following this treatment, the wire was again rinsed in DI H2O, then placed in a cell culture which contained fibroblasts that had been fluorescently labeled for 24 hours.\nAs a control, a second titanium wire was treated identically to the first wire, described above, except that it was not exposed to P-15 before being exposed to the fluorescently-labeled cells.",
  "note": "Entries after “also recorded” stand apart in the source; their conditions may differ.",
  "data": [
    {"substance": "G-T-P-G-P-Q-G-I-A-G-Q-R-G-V-V (GTPGPQGIAGQRGVV) [P-15, collagen receptor agonist]", "values": [
      {"measurement": "attachment of fluorescently labeled fibroblasts to the wire (photomicrographs, FIG. 1)", "result": "increased fibroblast binding; also recorded: far more attached cells"}
    ]}
  ]
}
